A short description of the data set: Solubility of GSD in the active-ingredient-containing matrix. It counts as physicochemical.

Each structure is given as a SMILES string.

In the case of `C#C[C@]1(O)C=C[C@H]2[C@@H]3CCC4=CC(=O)CC[C@@H]4[C@H]3CC[C@@]21CC` [GSD, gestodene], the “Solubility in the active-ingredient-containing matrix” value is “ca. 2%”.
